Test results taken from USRE47193E1, “Selectively substituted quinoline compounds” (EISAI R&D MANAGEMENT CO., LTD., priority 2013, dated 2019).

System: Human TLR7/8
Test: Human PBMC cell-based assay, TLR7/8 stimulus (RNA-Ig), cytokine ELISA
Conditions: primary human PBMC assay, TLR7/8 potency; ligand not given; read-out: Human PBMCs IC50
Method: Human PBMC Cell-Based Assay. Human peripheral blood mononuclear cells (PBMC) were isolated from freshly-drawn heparinized (10 USP units/ml, Hospira, Lakeforest, Ill.) healthy donor whole blood by density gradient (Histopaque® 1077, Sigma, Inc., St. Louis, Mo.). Briefly, 25 ml blood was diluted with 15 ml PBS (without Ca^2+, Mg^2+) in a 50 ml conical tube, and 12 ml Histopaque was underlaid using a spinal needle. Tubes were centrifuged for 45 minutes at 1200 rpm (350×g), and PBMC were collected from the buffy coat. Cells were then washed twice in PBS, and red blood cells were lysed by suspension in 5 ml ammonium chloride solution (1× Red Blood Cell Lysis Buffer, eBioscience) for 5 minutes at room temperature. After a final wash in PBS, PBMC were resuspended at a final concentration of 2×10^6/ml in RPMI-1640 media with L-glutamine (Invitrogen) and supplemented with 25 mM HEPES (Mediatech, Inc, Manassas Va.), 10% fetal bovine serum (HyClone, Logan, Utah), and Penicillin-Streptomycin-Glutamine (Mediatech) and plated at 100 ul/well (2×10^5 cells/well) in tissue culture treated 96-well plates (Falcon).
Antagonist compounds solubilized and serial diluted in 100% DMSO were added in triplicate to cells to yield a final concentration of 0.1% DMSO (v/v). Hydroxychloroquine (Acros Organics) solubilized and serial diluted in PBS was added in triplicate to cells. PBMC were incubated with antagonist compounds or HCQ for 30 minutes at 37° C., 5% CO2 before adding various TLR agonist reagents in 100 ul complete media per well as follows (final concentrations indicated): R848 (Resiquimod; GLSynthesis, Worcester, Mass.) at 1 uM for TLR7 and TLR8, LPS (Sigma) at 10 ng/ml for TLR4, and CpG-2216 (InvivoGen) at 5 ug/ml for TLR9. To prepare a TLR7/8 agonist that mimics RNA-containing auto-antibody immune complexes in lupus patients, a 26-mer RNA with a sequence derived from human U1 snRNA stem loop IV [(sequence: […]-[…] (SEQ ID NO: 2) with phosphorothioate backbone] was synthesized (Dharmacon, Inc., Lafayette, Colo.), which has been shown previously to be a potent TLR7 and TLR8 agonist. This RNA molecule was diluted to 2.5 μM in serum-free RPMI, and mouse anti-human single stranded DNA monoclonal antibody (MAB3034, Millipore, Inc., Billerica, Mass.), which also cross-reacts with RNA, was added at a 1:25 dilution or at 1 ug/ml. The resulting “RNA-Ig” stimulus was incubated at room temperature for 15-30 minutes before adding to cells. PBMC were incubated with the various TLR agonists for 20 hours at 37° C., 5% CO2. Cell culture supernatants were collected, and levels of various human cytokines were assessed as indicated by standard ELISA procedure according to the manufacturer's recommended protocol (BD Biosciences, Inc., San Diego, Calif.). In a subsequent assay (Table 6) the ability of ER-899742 to block stimulation of normal PBMC by various TLR7/8 ligands, but not DNA-mediated activation of TLR9, was examined. In this assay cells were plated at 1×10^5 cells/well in 100 ul in 96-well plates.

SMILES: CC1CCN(C[C@H]2CN(c3ccc(C#N)c4ncccc34)C[C@@H](C)O2)CC1 [ER-887141]
- IC50: 49 nM

SMILES: C[C@@H]1CN(c2ccc(C#N)c3ncccc23)C[C@H](CN2CC[C@@H](O)C2)O1 [ER-886867]
- IC50: 34 nM

SMILES: C[C@@H]1CN(c2ccc(C#N)c3ncccc23)C[C@H](Cn2cc(-c3ccccc3)nn2)O1 [ER-888604]
- IC50: 6 nM

SMILES: CC1CN(c2ccc(C#N)c3ncccc23)CC(C(=O)NCC(F)(F)F)O1 (stereo not shown) [ER-898563]
- IC50: 122 nM

SMILES: C[C@@H]1CN(c2ccc(C#N)c3ncccc23)C[C@H](Cn2cc(C3CCCCC3)nn2)O1 [ER-888603]
- IC50: 7 nM

SMILES: CC(=O)N1CCN(C2CN(CC3CN(c4ccc(C#N)c5ncccc45)CC(C)O3)C2)CC1 (stereo not shown) [ER-890120]
- IC50: 5 nM

SMILES: CC1CN(c2ccc(C#N)c3ncccc23)CC(C(=O)Nc2ccnn2C)O1 (stereo not shown) [ER-898919]
- IC50: 55 nM

SMILES: CCC(O)CNC(=O)C1CN(c2ccc(C#N)c3ncccc23)CC(C)O1 (stereo not shown) [ER-897922]
- IC50: 64 nM

SMILES: CC(C)C(=O)N[C@H]1CCN(C[C@H]2CN(c3ccc(C#N)c4ncccc34)C[C@@H](C)O2)C1 [ER-894547]
- IC50: 12 nM

SMILES: CC1CN(c2ccc(C#N)c3ncccc23)CC(C(=O)N2CCC(N3CCCCC3)CC2)O1 (stereo not shown) [ER-895477]
- IC50: 13 nM

SMILES: CC(C(=O)NC[C@H]1CN(c2ccc(C#N)c3ncccc23)C[C@@H](C)O1)c1ccccc1 (stereo partly shown) [ER-886360]
- IC50: 486 nM

SMILES: CCC(CO)NC(=O)C1CN(c2ccc(C#N)c3ncccc23)CC(C)O1 (stereo not shown) [ER-897827]
- IC50: 39 nM

SMILES: CC1CN(c2ccc(C#N)c3ncccc23)CC(CN2CCN(c3ccncc3)CC2)O1 (stereo not shown) [ER-888286]
- IC50: 223 nM

SMILES: C[C@@H]1CN(c2ccc(C#N)c3ncccc23)C[C@H](C(=O)NCCN(C)C)O1 [ER-899154]
- IC50: 14 nM

SMILES: Cc1nn(C)cc1C(=O)NC1CCN(CC2CN(c3ccc(C#N)c4ncccc34)CC(C)O2)CC1 (stereo not shown) [ER-893926]
- IC50: 8 nM

SMILES: N#Cc1ccc(N2CCOC(CCl)C2)c2cccnc12 (stereo not shown) [ER-879570]
- IC50: 113 nM

SMILES: Cc1nc2cc(NC[C@H]3CN(c4ccc(C#N)c5ncccc45)C[C@@H](C)O3)ccc2n1C [ER-886608]
- IC50: 1 nM

SMILES: C[C@@H]1CN(c2ccc(C#N)c3ncccc23)C[C@H](COc2ccc(F)c(F)c2)O1 [ER-886605]
- IC50: 21 nM

SMILES: CC1CN(c2ccc(C#N)c3ncccc23)CC(C(C)O)O1 (stereo not shown) [ER-895200]
- IC50: 26 nM

SMILES: Cc1ccnc(NCC2CN(c3ccc(C#N)c4ncccc34)CC(C)O2)c1 (stereo not shown) [ER-886853]
- IC50: 4 nM

SMILES: CC1CN(c2ccc(C#N)c3ncccc23)CC(CN2CCNCC2C)O1 (stereo not shown) [ER-890344]
- IC50: 2 nM

SMILES: CC1CN(c2ccc(C#N)c3ncccc23)CC(CN2CCC(NC(=O)c3cccnc3)CC2)O1 (stereo not shown) [ER-889728]
- IC50: 21 nM

SMILES: C[C@@H]1CN(c2ccc(C#N)c3ncccc23)C[C@H](COc2cccc(F)c2)O1 [ER-886606]
- IC50: 15 nM

SMILES: CC1CN(c2ccc(C#N)c3ncccc23)CC(CN2CC(O)CC2CO)O1 (stereo not shown) [ER-887262]
- IC50: 103 nM

SMILES: C[C@@H]1CN(c2ccc(C#N)c3ncccc23)C[C@H](CN2CC[C@H](N(C)C)C2)O1 [ER-894549]
- IC50: 14 nM

SMILES: CC(=O)N1CCC(C2CCN(CC3CN(c4ccc(C#N)c5ncccc45)CC(C)O3)CC2)CC1 (stereo not shown) [ER-890113]
- IC50: 22 nM

SMILES: C[C@@H]1CN(c2ccc(C#N)c3ncccc23)C[C@H](CN2CC[C@H](NC(=O)c3ccccc3)C2)O1 [ER-894548]
- IC50: 28 nM

SMILES: CC1CN(c2ccc(C#N)c3ncccc23)CC(CN2CC(N3CCN(C)CC3)C2)O1 (stereo not shown) [ER-890108]
- IC50: 9 nM

SMILES: CC(C)C(=O)N[C@@H]1CCN(C[C@H]2CN(c3ccc(C#N)c4ncccc34)C[C@@H](C)O2)C1 [ER-890253]
- IC50: 64 nM

SMILES: CC(CO)NC(=O)C1CN(c2ccc(C#N)c3ncccc23)CC(C)O1 (stereo not shown) [ER-897446]
- IC50: 53 nM

SMILES: CC1CN(c2ccc(C#N)c3ncccc23)CC(CN2CC(N3CCOCC3)C2)O1 (stereo not shown) [ER-890342]
- IC50: 121 nM

SMILES: CC(=O)NC[C@H]1CN(c2ccc(C#N)c3ncccc23)C[C@@H](C)O1 [ER-879689]
- IC50: 1240 nM

SMILES: CC1CN(c2ccc(C#N)c3ncccc23)CC(C(=O)N2CC3CNCC3C2)O1 (stereo not shown) [ER-899367]
- IC50: 12 nM

SMILES: N#Cc1ccc(N2CCOC(CNc3ccccn3)C2)c2cccnc12 (stereo not shown) [ER-887612]
- IC50: 53 nM
